Experimental data published in BigSolDB 2.1.

Q: What does the source list for O=C(O)CC(O)C(=O)O (configuration not stated)?
A: solubility (mole fraction) (in 1,4-dioxane, 303.2 K): 0.14; solubility (mole fraction) (in 1,4-dioxane, 308.2 K): 0.153; solubility (mole fraction) (in 1,4-dioxane, 313.2 K): 0.16; solubility (mole fraction) (in 1,4-dioxane, 318.2 K): 0.168; solubility (mole fraction) (in 1,4-dioxane, 323.2 K): 0.177; solubility (mole fraction) (in 1,4-dioxane, 328.2 K): 0.192; solubility (mole fraction) (in 1,4-dioxane, 333.2 K): 0.21; solubility (mole fraction) (in THF, 303.2 K): 0.145; solubility (mole fraction) (in THF, 308.2 K): 0.156; solubility (mole fraction) (in THF, 313.2 K): 0.191; solubility (mole fraction) (in THF, 318.2 K): 0.199; solubility (mole fraction) (in THF, 323.2 K): 0.219; solubility (mole fraction) (in THF, 328.2 K): 0.235; solubility (mole fraction) (in THF, 333.2 K): 0.253; solubility (mole fraction) (in acetonitrile, 303.2 K): 0.007; solubility (mole fraction) (in acetonitrile, 308.2 K): 0.009; solubility (mole fraction) (in acetonitrile, 313.2 K): 0.011; solubility (mole fraction) (in acetonitrile, 318.2 K): 0.012; solubility (mole fraction) (in acetonitrile, 323.2 K): 0.015; solubility (mole fraction) (in acetonitrile, 328.2 K): 0.017; solubility (mole fraction) (in acetonitrile, 333.2 K): 0.021; solubility (mole fraction) (in ethanol, 303.2 K): 0.082; solubility (mole fraction) (in ethanol, 308.2 K): 0.091; solubility (mole fraction) (in ethanol, 313.2 K): 0.101; solubility (mole fraction) (in ethanol, 318.2 K): 0.115; solubility (mole fraction) (in ethanol, 323.2 K): 0.121; solubility (mole fraction) (in ethanol, 328.2 K): 0.129; solubility (mole fraction) (in ethanol, 333.2 K): 0.134; solubility (mole fraction) (in isopropanol, 303.2 K): 0.036; solubility (mole fraction) (in isopropanol, 308.2 K): 0.045; solubility (mole fraction) (in isopropanol, 313.2 K): 0.055; solubility (mole fraction) (in isopropanol, 318.2 K): 0.071; solubility (mole fraction) (in isopropanol, 323.2 K): 0.094; solubility (mole fraction) (in isopropanol, 328.2 K): 0.118; solubility (mole fraction) (in isopropanol, 333.2 K): 0.134; solubility (mole fraction) (in water, 303.2 K): 0.066; solubility (mole fraction) (in water, 308.2 K): 0.084; solubility (mole fraction) (in water, 313.2 K): 0.106; solubility (mole fraction) (in water, 318.2 K): 0.132; solubility (mole fraction) (in water, 323.2 K): 0.154; solubility (mole fraction) (in water, 328.2 K): 0.17; solubility (mole fraction) (in water, 333.2 K): 0.184
